One test deals with T1, CCK receptor (pancreas) (Rattus norvegicus, UniProt P30551).
T1 construct: The whole pancreas was dissected free of fat tissue and was homogenized; from tissue; host or cells: whole pancreas of male Sprague-Dawley rats, membrane homogenate
T1 sequence (P30551 1-444): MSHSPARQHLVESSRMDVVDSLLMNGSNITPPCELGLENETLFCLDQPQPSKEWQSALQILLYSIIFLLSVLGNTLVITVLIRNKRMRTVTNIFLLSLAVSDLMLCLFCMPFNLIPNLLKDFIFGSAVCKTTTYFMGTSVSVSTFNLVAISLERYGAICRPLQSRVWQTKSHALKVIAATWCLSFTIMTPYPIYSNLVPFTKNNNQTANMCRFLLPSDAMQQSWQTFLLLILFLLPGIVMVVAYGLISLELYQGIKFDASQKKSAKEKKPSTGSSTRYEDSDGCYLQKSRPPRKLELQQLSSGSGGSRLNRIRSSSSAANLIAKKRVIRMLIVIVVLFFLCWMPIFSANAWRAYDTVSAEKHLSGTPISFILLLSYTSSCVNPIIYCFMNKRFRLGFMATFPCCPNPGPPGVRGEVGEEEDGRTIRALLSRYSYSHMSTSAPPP
Description: CCK Receptor Binding (Pancreas), inhibition of 125I-CCK-8 binding. More on the design: species or system rat (male Sprague-Dawley). Particulars: rat pancreas membranes; 50 pM 125I-CCK-8; pH 6.5, 25° C., 2 hours. As for the experimental part:
CCK-8 sulphated was radiolabelled with ^125 I-Bolton Hunter reagent (2000 Ci/mmole). Receptor binding was performed according to Chang and Lotti (Proc. Natl. Acad. Sci. 83, 4923-4926, 1986) with minor modifications.
Male Sprague-Dawley rats (150-200 g) were sacrificed by decapitation. The whole pancreas was dissected free of fat tissue and was homogenized in 25 volumes of ice-cold 10 mM N-2-hydroxyethyl-piperazine-N'-2-ethane sulphonic acid (HEPES) buffer with 0.1% soya bean trypsin inhibitor (pH 7.4 at 25° C.) with a Kinematica Polytron. The homogenates were centrifuged at 47,800 g for 10 min. Pellets were resuspended in 10 volumes of binding assay buffer (20mM (HEPES)), 1 mM ethylene glycol-bis-(β-aminoethylether-N,N'-tetraacetic acid) (EGTA), 5 mM MgCl2, 150 mM NaCl, bacitracin 0.25 mg/ml, soya bean trypsin inhibitor 0.1 mg/ml, and bovine serum albumin 2 mg/ml pH 6.5 at 25° C.) using a Teflon (trademark) homogenizer, 15 strokes at 500 rpm. The homogenate was further diluted in binding assay buffer to give a final concentration of 0.5 mg original wet weight/1 ml buffer. […] The radioactivity on the filters was counted with a LKB gamma counter. […]

The target of the next test is T2, CCK receptor (brain) (Cavia porcellus, UniProt H0VZC5).
T2 construct: the cortex was removed and homogenized in 25 mL ice-cold 0.32M sucrose; from tissue; host or cells: cortex of male Hartley guinea pigs, P2 membrane pellet
Description: CCK Receptor Binding (Brain), inhibition of 125I-CCK-8 binding. Set-up: species or system guinea pig (male Hartley). The settings on record: guinea pig cortex membranes; 50 pM 125I-CCK-8; pH 6.5, 25° C., 2 hours. As for the experimental part:
CCK-8 sulphated was radiolabelled and the binding was performed according to the description for the pancreas method with minor modifications.
Male Hartley guinea pigs (300-500 g) were sacrificed by decapitation and the cortex was removed and homogenized in 25 mL ice-cold 0.32M sucrose. The homogenates were centrifuged at 1000 g for 10 minutes and the resulting supernatant was recentrifuged at 20,000 g for 20 minutes. The P2 pellet was resuspended in binding assay buffer (20 mM HEPES, 5 mM MgCl2, 0.25 mg/ml bacitracin, 1 mM EGTA pH 6.5 at 25° C.), using a Teflon (trademark) homogenizer (5 strokes at 500 rpm) to give a final concentration of 10 mg original wet weight/1.2 ml buffer. For the binding assay, 50 μl of buffer (for total binding) or unlabelled CCK-8 sulphated to give a final concentration of 1 μM (for nonspecific binding) or the compounds of Formula I (for determination of inhibition of ^125 I-CCK-8 binding) and 50 μl of 500 pM ^125 I-CCK-8 (i.e. final concentration of 50 pM) were added to 400 μl of the membrane suspensions in microfuge tubes. All assays were run in duplicate. The reaction mixtures were incubated at 25° C. for 2 hours and then the reaction was terminated by rapid filtration (Brandell 24 well cell harvester) on Whatman GF/C filters with 3×5 ml washes of cold 100 mM NaCl. The radioactivity on the filters was counted with a LKB gamma counter. […]

T2 sequence (H0VZC5 entry or part of it): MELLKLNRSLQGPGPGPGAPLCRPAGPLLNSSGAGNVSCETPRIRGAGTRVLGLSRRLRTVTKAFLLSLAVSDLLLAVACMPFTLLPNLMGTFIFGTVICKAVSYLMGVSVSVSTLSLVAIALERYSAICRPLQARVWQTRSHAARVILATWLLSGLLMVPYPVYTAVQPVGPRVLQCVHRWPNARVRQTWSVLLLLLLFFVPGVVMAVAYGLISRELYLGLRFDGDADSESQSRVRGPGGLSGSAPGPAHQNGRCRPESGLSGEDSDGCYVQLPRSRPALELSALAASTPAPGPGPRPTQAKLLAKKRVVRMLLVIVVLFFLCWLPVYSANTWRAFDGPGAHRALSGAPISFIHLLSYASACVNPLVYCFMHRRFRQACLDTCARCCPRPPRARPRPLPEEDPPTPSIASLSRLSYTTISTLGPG

Turning to `CC(C)CN1C(=O)C(NC(=O)Nc2cccc(-c3nn[nH]n3)c2)N=C(c2ccc(=O)[nH]c2)c2ccccc21` (racemic) [Example 1, N-[3(R,S)-2,3-Dihydro-1-(2-methylpropyl)-2-oxo-5-(6-oxo-1,6-dihydropyridin-3-yl)-1H-1,4-benzodiazepin-3-yl]-N'-[3-(tetrazol-5-yl)phenyl]urea], the IC50 – broadly, the concentration at which inhibition is half-maximal – worked out at 2680 nM at CCK receptor (pancreas) and 19.2 nM at CCK receptor (brain).

With `CC(C)CN1C(=O)C(NC(=O)Nc2cccc(-c3nn[nH]n3)c2)N=C(c2cc[nH]c(=O)c2)c2ccccc21` (racemic) [Example 2, N-[3(R,S)-2,3-Dihydro-1-(2-methylpropyl)-2-oxo-5-(2-oxo-1,2-dihydropyridin-4-yl)-1H-1,4-benzodiazepin-3-yl]-N'-[3-(tetrazol-5-yl)phenyl]urea], the values for the IC50 on CCK receptor (pancreas) and at CCK receptor (brain) were 3380 nM and 23 nM, respectively.

These data come from patent US5478933A, “Benzodiazepine derivatives and their use as antagonists of cholecystokinin and/or gastrin receptors” (Merck Sharpe & Dohme Ltd., priority 1994, dated 1995).
